In patent publication US7161032B2, “Sulfonamide derivatives, insecticides for agricultural and horticultural use, and usage thereof” (Nihon Nohyaku Co., Ltd., priority 2002, dated 2007):

What was measured:
Assay type in all cases: in vivo
[1] = system: Common Cutworm (Spodoptera litura); assay: Insecticidal effect on common cutworm (Test Example 2): cabbage leaf piece immersed in 50 ppm liquid chemical; conditions: common cutworm (Spodoptera litura) second-instar larvae, 8 days after inoculation, 25° C.
Description: A piece of cabbage leaf (cultivar: Shikidori) was immersed for about 30 seconds in a liquid chemical prepared by diluting a preparation containing each compound listed in Table 1 or 2 as an active ingredient to adjust the concentration to 50 ppm. After air-dryness, it was placed in a plastic Petri dish with a diameter of 9 cm and inoculated with second-instar larvae of common cutworm, after which the dish was closed and then allowed to stand in a room thermostated at 25° C. Eight days after the inoculation, the dead and alive were counted. The mortality was calculated according to the following equation and the insecticidal effect was judged according to the criterion shown in Test Example 1. The test was carried out with triplicate groups of 10 insects. [formula]

[2] = system: Smaller Tea Tortrix (Adoxophyes sp.); assay: Insecticidal effect on smaller tea tortrix (Test Example 3): tea leaves immersed in 50 ppm liquid chemical; conditions: smaller tea tortrix (Adoxophyes sp.) larvae, 8 days after inoculation, 25° C., humidity 70%
Description: Tea leaves were immersed for about 30 seconds in a liquid chemical prepared by diluting a preparation containing each compound listed in Table 1 or 2 as an active ingredient to adjust the concentration to 50 ppm. After air-dryness, the tea leaves were placed in a plastic Petri dish with a diameter of 9 cm and inoculated with larvae of smaller tea tortrix, after which the dish was allowed to stand in a room thermostated at 25° C. and having a humidity of 70%. Eight days after the inoculation, the dead and alive were counted and the insecticidal effect was judged according to the criterion shown in Test Example 1. The test was carried out with triplicate groups of 10 insects.

[3] = system: Diamond Back Moth (Plutella xylostella); assay: Insecticidal effect on diamond back moth (Test Example 1): egg-bearing Chinese cabbage seedling immersed in 50 ppm liquid chemical
Description: Adult diamond back moths were released and allowed to oviposit on a Chinese cabbage seedling. Two days after the release, the seedling having the eggs deposited thereon was immersed for about 30 seconds in a liquid chemical prepared by diluting a preparation containing each compound listed in Table 1 or 2 as an active ingredient to adjust the concentration to 50 ppm. After air-dryness, it was allowed to stand in a room thermostated at 25° C. Six days after the immersion, the hatched insects were counted. The mortality was calculated according to the following equation and the insecticidal effect was judged according to the criterion shown below. The test was carried out with triplicate groups of 10 insects. [formula]

SMILES | Insecticidal effect (mortality grade), Test Example 2 [1] | Insecticidal effect (mortality grade), Test Example 3 [2] | Insecticidal effect (mortality grade), Test Example 1 [3]
Cc1cc(C(F)(C(F)(F)F)C(F)(F)F)ccc1NC(=O)c1cccc(I)c1C(=O)NC(C)(C)CS(=O)(=O)N1CCCC1 [1-181] | A (Mortality 100%) | A (Mortality 100%) | A (Mortality 100%)
CCN(CC)S(=O)(=O)CC(C)NC(=O)c1c(Br)cccc1C(=O)Nc1ccc(C(F)(C(F)(F)F)C(F)(F)F)cc1C (stereo not shown) [1-214] | A (Mortality 100%) | A (Mortality 100%) | A (Mortality 100%)
COc1ccc(NS(=O)(=O)CC(C)NC(=O)c2c(I)cccc2C(=O)Nc2ccc(C(F)(C(F)(F)F)C(F)(F)F)cc2C)cc1 (stereo not shown) [1-111] | E (Mortality less than 50%) | E (Mortality less than 50%) | A (Mortality 100%)
Cc1cc(C(F)(C(F)(F)F)C(F)(F)F)ccc1NC(=O)c1cccc(I)c1C(=O)NC(C)CS(=O)(=O)Nc1ccccc1F (stereo not shown) [1-107] | C (Mortality 89–80%) | A (Mortality 100%) | A (Mortality 100%)
CCCCNS(=O)(=O)CC(C)NC(=O)c1c(I)cccc1C(=O)Nc1ccc(C(F)(C(F)(F)F)C(F)(F)F)cc1C (stereo not shown) [1-12] | A (Mortality 100%) | A (Mortality 100%) | A (Mortality 100%)
COCCNS(=O)(=O)CC(C)(C)NC(=O)c1c(I)cccc1C(=O)Nc1ccc(C(F)(C(F)(F)F)C(F)(F)F)cc1C [1-79] | A (Mortality 100%) | A (Mortality 100%) | A (Mortality 100%)
Cc1cc(C(F)(C(F)(F)F)C(F)(F)F)ccc1NC(=O)c1cccc(I)c1C(=O)NC(C)(C)CS(=O)(=O)N(C)C [1-177] | A (Mortality 100%) | A (Mortality 100%) | A (Mortality 100%)
Cc1cc(C(F)(C(F)(F)F)C(F)(F)F)ccc1NC(=O)c1cccc(I)c1C(=O)NC(C)CS(=O)(=O)N(C)C (stereo not shown) [1-3] | A (Mortality 100%) | A (Mortality 100%) | A (Mortality 100%)
CCN(CC)S(=O)(=O)CC(C)(C)NC(=O)c1c(I)cccc1C(=O)Nc1ccc(C(C(F)(F)F)C(F)(F)F)cc1C [1-344] | A (Mortality 100%) | A (Mortality 100%) | A (Mortality 100%)
Cc1cc(C(F)(C(F)(F)F)C(F)(F)F)ccc1NC(=O)c1cccc(I)c1C(=O)NC(C)(C)CS(=O)(=O)N1CCSCC1C (stereo not shown) [1-61] | A (Mortality 100%) | A (Mortality 100%) | A (Mortality 100%)
Cc1cc(C(F)(C(F)(F)F)C(F)(F)F)ccc1NC(=O)c1cccc(I)c1C(=O)NC(C)CS(=O)(=O)NCc1ccc([N+](=O)[O-])cc1 (stereo not shown) [1-36] | A (Mortality 100%) | A (Mortality 100%) | A (Mortality 100%)
CCN(CC)S(=O)(=O)CC(C)NC(=O)c1c(Cl)cccc1C(=O)Nc1ccc(C(F)(C(F)(F)F)C(F)(F)F)cc1C (stereo not shown) [1-211] | A (Mortality 100%) | A (Mortality 100%) | A (Mortality 100%)
COc1ccccc1CNS(=O)(=O)CC(C)NC(=O)c1c(I)cccc1C(=O)Nc1ccc(C(F)(C(F)(F)F)C(F)(F)F)cc1C (stereo not shown) [1-27] | A (Mortality 100%) | A (Mortality 100%) | A (Mortality 100%)
CCCCNS(=O)(=O)CC(C)(C)NC(=O)c1c(I)cccc1C(=O)Nc1ccc(C(F)(C(F)(F)F)C(F)(F)F)cc1C [1-180] | C (Mortality 89–80%) | A (Mortality 100%) | A (Mortality 100%)
Cc1cc(C(F)(C(F)(F)F)C(F)(F)F)ccc1NC(=O)c1cccc(I)c1C(=O)NC(C)CS(=O)(=O)Nc1ccc(F)cc1 (stereo not shown) [1-110] | E (Mortality less than 50%) | E (Mortality less than 50%) | A (Mortality 100%)
Cc1cc(C(F)(C(F)(F)F)C(F)(F)F)ccc1NC(=O)c1cccc(Br)c1C(=O)NC(C)CS(=O)(=O)NCc1ccccc1 (stereo not shown) [1-218] | A (Mortality 100%) | A (Mortality 100%) | A (Mortality 100%)
CCCNS(=O)(=O)CC(C)NC(=O)c1c(I)cccc1C(=O)Nc1ccc(C(F)(C(F)(F)F)C(F)(F)F)cc1C (stereo not shown) [1-7] | A (Mortality 100%) | A (Mortality 100%) | A (Mortality 100%)
CCN(Cc1ccccc1)S(=O)(=O)CC(C)NC(=O)c1c(I)cccc1C(=O)Nc1ccc(C(F)(C(F)(F)F)C(F)(F)F)cc1C (stereo not shown) [1-43] | A (Mortality 100%) | A (Mortality 100%) | A (Mortality 100%)
CCNS(=O)(=O)CC(C)(C)NC(=O)c1c(I)cccc1C(=O)Nc1ccc(C(F)(C(F)(F)F)C(F)(F)F)cc1C [1-178] | A (Mortality 100%) | A (Mortality 100%) | A (Mortality 100%)
Cc1cc(C(F)(C(F)(F)F)C(F)(F)F)ccc1NC(=O)c1cccc(I)c1C(=O)NC(C)CS(=O)(=O)NC(C)C (stereo not shown) [1-8] | A (Mortality 100%) | A (Mortality 100%) | A (Mortality 100%)
CCS(=O)(=O)CCNS(=O)(=O)CC(C)(C)NC(=O)c1c(I)cccc1C(=O)Nc1ccc(C(F)(C(F)(F)F)C(F)(F)F)cc1C [1-86] | A (Mortality 100%) | A (Mortality 100%) | A (Mortality 100%)
CSc1ccc(NS(=O)(=O)CC(C)NC(=O)c2c(I)cccc2C(=O)Nc2ccc(C(F)(C(F)(F)F)C(F)(F)F)cc2C)cc1 (stereo not shown) [1-112] | E (Mortality less than 50%) | E (Mortality less than 50%) | A (Mortality 100%)
CCNS(=O)(=O)CC(C)NC(=O)c1c(I)cccc1C(=O)Nc1ccc(C(F)(C(F)(F)F)C(F)(F)F)cc1C (stereo not shown) [1-4, N^2-(2-ethylsulfamoyl-1-methylethyl)-3-iodo-N^1-{2-methyl-4-[1,2,2,2-tetrafluoro-1-(trifluoromethyl)ethyl]phenyl}phthalamide] | A (Mortality 100%) | A (Mortality 100%) | A (Mortality 100%)
CCS(=O)(=O)CCNS(=O)(=O)CC(C)(C)NC(=O)c1c(I)cccc1C(=O)Nc1ccc(C(F)(F)C(F)(F)F)cc1C [1-309] | A (Mortality 100%) | A (Mortality 100%) | A (Mortality 100%)
Cc1cc(C(F)(C(F)(F)F)C(F)(F)F)ccc1NC(=O)c1cccc(I)c1C(=O)NC(C)CS(=O)(=O)N1CCS(=O)(=O)CC1 (stereo not shown) [1-57] | A (Mortality 100%) | A (Mortality 100%) | A (Mortality 100%)
Cc1cc(C(F)(C(F)(F)F)C(F)(F)F)ccc1NC(=O)c1cccc(Br)c1C(=O)NC(C)CS(=O)(=O)NC(C)C (stereo not shown) [1-216] | A (Mortality 100%) | A (Mortality 100%) | A (Mortality 100%)
Cc1cc(C(F)(C(F)(F)F)C(F)(F)F)ccc1NC(=O)c1cccc(I)c1C(=O)NC(C)(C)CS(=O)(=O)NCC[S+]([O-])c1ccccc1 (stereo not shown) [1-88] | A (Mortality 100%) | A (Mortality 100%) | A (Mortality 100%)
CCNS(=O)(=O)CC(C)NC(=O)c1c(I)cccc1C(=O)Nc1ccc(C(F)(C(F)(F)F)C(F)(F)F)cc1C (stereo not shown) [1-142] |  | A (Mortality 100%) | 
